# Measured values: US6660846B1, “Vesicular amino acid transporter composition and method” (The Regents of the University of CA, priority 1997, dated 2003)
# Where two headings read alike, the source gives them in different places.
# T1: rVGAT (RUNC-47, rat unc-47 homologue) (Rattus norvegicus, UniProt O35458)
# T1 construct: expressed in transfected cells
# T1 sequence (O35458 1-525): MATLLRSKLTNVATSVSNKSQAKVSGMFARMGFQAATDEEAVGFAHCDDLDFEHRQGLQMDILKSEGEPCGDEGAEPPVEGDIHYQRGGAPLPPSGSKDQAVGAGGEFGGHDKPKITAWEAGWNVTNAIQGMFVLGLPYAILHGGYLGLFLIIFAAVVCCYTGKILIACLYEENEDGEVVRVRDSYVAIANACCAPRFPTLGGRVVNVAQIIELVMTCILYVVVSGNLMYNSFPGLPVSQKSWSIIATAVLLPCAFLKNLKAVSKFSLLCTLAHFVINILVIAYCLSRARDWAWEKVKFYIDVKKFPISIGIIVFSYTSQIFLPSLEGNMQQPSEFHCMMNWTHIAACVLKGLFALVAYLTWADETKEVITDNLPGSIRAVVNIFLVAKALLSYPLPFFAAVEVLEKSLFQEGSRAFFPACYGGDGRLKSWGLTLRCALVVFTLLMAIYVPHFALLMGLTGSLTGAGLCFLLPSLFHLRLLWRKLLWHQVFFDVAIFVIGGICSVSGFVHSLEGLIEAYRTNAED
# T2: vesicular monoamine transporter 1 (VMAT1) (Rattus norvegicus, UniProt Q01818)
# T2 construct: transport of serotonin by endogenous VMAT1; endogenous in cells; host or cells: PC12 cells (clone B1 stably expressing rVGAT), light membrane vesicles
# T2 sequence (Q01818 1-521): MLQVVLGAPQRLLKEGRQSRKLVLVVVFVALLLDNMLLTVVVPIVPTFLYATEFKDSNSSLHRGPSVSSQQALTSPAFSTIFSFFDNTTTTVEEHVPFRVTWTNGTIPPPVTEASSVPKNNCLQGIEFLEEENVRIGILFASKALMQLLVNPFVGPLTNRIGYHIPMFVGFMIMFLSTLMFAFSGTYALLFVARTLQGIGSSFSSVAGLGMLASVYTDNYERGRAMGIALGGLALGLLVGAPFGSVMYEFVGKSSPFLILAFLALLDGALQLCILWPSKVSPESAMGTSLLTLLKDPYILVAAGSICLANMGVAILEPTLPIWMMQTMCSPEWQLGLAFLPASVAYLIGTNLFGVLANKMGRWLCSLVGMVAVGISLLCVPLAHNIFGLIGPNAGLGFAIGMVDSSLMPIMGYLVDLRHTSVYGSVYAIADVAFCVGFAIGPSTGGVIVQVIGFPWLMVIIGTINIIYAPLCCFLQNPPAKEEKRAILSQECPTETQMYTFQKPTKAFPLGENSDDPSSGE
# Tests used:
# [1] = target: T1, rVGAT (RUNC-47, rat unc-47 homologue); test: 3H-GABA transport assay in vesicles from PC12 cells stably expressing rVGAT (RUNC-47); type: biochemical
# Protocol: Stable PC12 transformants expressing high levels of the putative transport protein were isolated by screening cell clones with fluorescent-tagged antibodies generated against the rat unc-47 homologue RUNC-47. […] A population of light vesicles was then isolated from two stable transformants and purified by differential centrifugation (Example 7).
# Hereafter, the terms RUNC-47 and rVGAT are used interchangeably.
# These studies were carried out in the transport assay detailed in Example 8, using synaptic vesicles prepared from transfected PC-12 cells, as described above and detailed in Example 7.
# Briefly, vesicles were prepared from PC12 cell clone B1 stably expressing rVGAT and from un-transfected cells.
# The rat unc-47 homologue cDNA subcloned into the plasmid expression vector pcDNA3-Amp (InVitrogen; Carlsbad, Calif.) was introduced into PC12 cells by electroporation (Grote, et al., Cell 81, 581-589, 1995). […] The nuclear debris was sedimented at 100 g for 5 minutes and heavier membranes were eliminated by centrifugation at 27,000 g for 1 hour The remaining light membrane vesicles were sedimented at 65,000 g for 1 hour and resuspended in SH containing the same protease inhibitors at a final concentration of approximately 10 μg protein/μl.
# Incubation was performed at 29° C. for varying intervals and the reaction was terminated by rapid filtration (Supor 200, Gelman; AnnArbor, Mich.), followed by immediate washing with 6 ml cold 0.15 M KCl. Background uptake was determined by incubation at 4° C. for 0 minutes. The bound radioactivity was measured by scintillation counting in 2.5 ml Cytoscint (ICN). […] Nigericin and valinomycin were dissolved in ethanol and added to final concentrations of 5 μM and 20 μM respectively. Transport measurements were performed in duplicate and repeated three or more times using at least two different membrane preparations.
# RUNC-47 (rVGAT) = RUNC-47 (rVGAT) (Rattus norvegicus, UniProt O35458)
# [2] = target: T2, vesicular monoamine transporter 1 (VMAT1); test: Serotonin transport by endogenous VMAT1 in the same PC12 cell membrane preparations; type: biochemical
# Text: Since nigericin inhibits VMAT1 activity on these vesicles to a greater extent (approximately 65%) than it inhibits rVGAT activity, vesicular transport of serotonin has a greater dependence on ΔpH. […] Thus, rVGAT and VMAT1 depend on both components of the electrochemical gradient but VMAT1 depends to a greater extent on ΔpH, consistent with previous results using mixed populations of synaptic vesicles.
# [3] = substrate: NCCCC(=O)O; test: cells, lysate or membranes named; conditions: other: transfected PC12 cell vesicles; uptake measured at 30 seconds; pH 7.4; 29.0 °C
molecule,measurement,setting,value
"NCCCC(=O)O [GABA, gamma-aminobutyric acid]",IC50,[1],4.75 mM
C=CC(N)CCC(=O)O (stereo not drawn) [gamma-vinyl-GABA],IC50,[1],7.5 mM
same,"Inhibition of rVGAT activity (3H-GABA transport), in words",[1],as potently as unlabelled GABA
N[C@@H](CCC(=O)O)C(=O)O [glutamate],"Inhibition of rVGAT activity (3H-GABA transport), in words",[1],does not inhibit rVGAT activity even at extremely high concentrations
same,IC50,"[1]; read-out: Inhibition of GABA Transport by Structurally Related Compounds, IC50, vesicles from rVGAT-transfected PC12 cells, about 40 μM GABA including radiolabeled GABA",> 100 mM
NCC(=O)O [glycine],IC50,[1],27.5 mM
same,"Inhibition of rVGAT activity (3H-GABA transport), in words",[1],relatively low potency
same,Uptake of 3H-glycine by RUNC-47 PC-12 vesicle preparations,RUNC-47 (rVGAT),no significant uptake
CCCC(=O)O [n-butyric acid],IC50,[1],43.5 mM
same,"Inhibition of rVGAT activity (3H-GABA transport), in words","[1]; vesicles from rVGAT-transfected PC12 cells, about 40 μM GABA",inhibits both rVGAT activity and GABA transport into brain synaptic vesicles
CO[C@@H]1C[C@@H](C[C@H]2CC[C@H](C)[C@H]([C@@H](C)C(=O)O)O2)O[C@]2(O[C@](C)([C@H]3CC[C@@](C)([C@@H]4O[C@@H]([C@H]5O[C@@](O)(CO)[C@H](C)C[C@@H]5C)C[C@@H]4C)O3)C[C@H]2C)[C@@H]1C [nigericin],Inhibition of GABA transport in rVGAT transfected cells,"[1]; nigericin 5 FM, PC12 clone B1 membranes",approximately 40%
same,Inhibition of serotonin transport by endogenous VMAT1,"[2]; nigericin, membranes from transfected PC12 cells that express VGAT",approximately 65%
CC(C)[C@@H]1NC(=O)[C@H](C)OC(=O)[C@@H](C(C)C)NC(=O)[C@@H](C(C)C)OC(=O)[C@H](C(C)C)NC(=O)[C@H](C)OC(=O)[C@@H](C(C)C)NC(=O)[C@@H](C(C)C)OC(=O)[C@H](C(C)C)NC(=O)[C@H](C)OC(=O)[C@@H](C(C)C)NC(=O)[C@@H](C(C)C)OC1=O [valinomycin],Effect on rVGAT activity of adding valinomycin to nigericin,"[1]; valinomycin 20 FM added to nigericin 5 FM, PC12 clone B1 membranes",eliminates rVGAT activity
same,Effect on residual VMAT1 activity of adding valinomycin to nigericin,"[2]; valinomycin added to nigericin, same PC12 membranes",eliminates the residual VMAT1 activity
"rVGAT (RUNC-47, rat unc-47 homologue) (Rattus norvegicus) (protein) MATLLRSKLTNVATSVSNKSQAKVSGMFARMGFQAATDEEAVGFAHCDDLDFEHRQGLQMDILKSEGEPCGDEGAEPPVEGDIHYQRGGAPLPPSGSKDQAVGAGGEFGGHDKPKITAWEAGWNVTNAIQGMFVLGLPYAILHGGYLGLFLIIFAAVVCCYTGKILIACLYEENEDGEVVRVRDSYVAIANACCAPRFPTLGGRVVNVAQIIELVMTCILYVVVSGNLMYNSFPGLPVSQKSWSIIATAVLLPCAFLKNLKAVSKFSLLCTLAHFVINILVIAYCLSRARDWAWEKVKFYIDVKKFPISIGIIVFSYTSQIFLPSLEGNMQQPSEFHCMMNWTHIAACVLKGLFALVAYLTWADETKEVITDNLPGSIRAVVNIFLVAKALLSYPLPFFAAVEVLEKSLFQEGSRAFFPACYGGDGRLKSWGLTLRCALVVFTLLMAIYVPHFALLMGLTGSLTGAGLCFLLPSLFHLRLLWRKLLWHQVFFDVAIFVIGGICSVSGFVHSLEGLIEAYRTNAED",Km,[3],5 mM
